One series concerns CB1 receptors. On the set-up: method as in PMID 22172309. The following applies: cited from earlier work.
In another series the target is CB2 receptor. On the set-up: method as in PMID 22172309. The settings on record: cited from earlier work; for Ki: CB2 receptor.
Series [1] has as its target T1, human CB2 (Homo sapiens, UniProt P34972). Briefly: Human CB2 (agonist radioligand) receptor binding assay, [3H]-WIN 55212-2. On the set-up: host or cells: cAMP Hunter CHO-K1 CNR2 Gi. The following applies: membranes from CB2-expressing CHO cells, [3H]-WIN55212-2 radioligand, duplicate. On the procedure: Assays of binding to CB2 receptors were performed at Eurofins Discovery France (https://www.eurofinsdiscoveryservices.com/) under the study number 100057099 (accessed on 3 June 2021) using the protocol previously published by Munro, Thomas, and Abu-Shaar. Human recombinant CB2 receptors were expressed in CHO cells, and binding was performed with [^3H]-WIN 55212-2, which is a nonselective agonist radioligand. The analysis was performed using software developed at Cerep (Hill software, Santa Barbara, CA, USA) and SigmaPlot 4.0 for Windows (^©1997 by SPSS Inc., Chicago, IL, USA).
(§1) Data obtained from duplicate experiments were fit to concentration-response curves by non-linear regression of the Hill equation. Curve-fit parameters and standard errors were calculated using GraphPad Prism 6.0 (Hercules, CA, USA).

Series [2] in a line: Parallel artificial membrane permeability assay, blood-brain barrier (PAMPA-BBB). The settings on record: for Papp at 2.75 h, 0.2 mg/mL: PAMPA, pH 7.4; for Classification / Pe experimental: Table S2, PAMPA-BBB; for PAMPA-BBB Score: porcine brain lipid membrane. On the procedure:
In a 5 mL glass vial, 1 mg of each compound (test or control) was dissolved in 1 mL of ethanol. Then, 500 μL of ethanol and 3.5 mL of PBS at pH 7.4 were added to this solution. […] After 5 min, the donor plate received 180 μL of each compound solution in triplicate. […] The experiments were performed in triplicate with two different analyses (n = 2).
In general terms: PAMPA measures passive passage across an artificial lipid membrane.

The nature of series [3]: Parallel artificial membrane permeability assay, gastrointestinal (PAMPA-GI / PAMPA-GTI). The following applies: for Papp at 8 h, 0.5 mM: PAMPA; for Classification / Pe Exp / Fa: Table S1, PAMPA-GTI; for Fa / PAMPA-GI Fa Exp: absorbed fraction; for PAMPA-GI Fa Exp: soybean L-α-phosphatidylcholine membrane.
Protocol: A 10 mM solution of each compound (tests and controls) was prepared in DMSO. Then, in a 5 mL glass flask, 250 µL of the freshly prepared solution was homogenized with 4750 µL of PBS at pH 6.6 to a concentration of 10 mM. The solution was then filtered in a 0.45 µm PVDF filter and set aside. Then, 180 µL of a solution of phosphate-bufffered saline (PBS, pH 7.4):DMSO (95:5) was added to the wells of the receptor plate, and 5 µL of the soy L-α-phosphatidylcholine lipid solution (20 mg/mL in dodecane) was added to the wells of the donor plate. After 5 min, the donor plate received 180 µL of the reserved solution containing each compound. […] After this period, the donor plate was removed, and the contents of the recipient plate were transferred to a UV reading plate and read (SpectraMax 5, Molecular Devices) at the maximum wavelengths for each compound. The blank was prepared with 180 µL of PBS solution (pH 7.4):DMSO (95:5). The experiments were carried out in triplicate with two different analyses (n = 2) [37]. The optical density values obtained from the readings at each selected wavelength for each of the compounds were analyzed by comparison with the values of the controls. These values were used to determine the absorbed fraction (Fa %) using the JMP® program version 10.0.
A short description of series [4]: Distribution coefficient at pH 7.4 (shake-flask, octanol/phosphate buffer). It counts as physicochemical. The settings on record: 1-octanol/buffer pH 7.4; n-octanol/buffer partitioning at pH 7.4, UV method; read-out: Log D7.4. As to the method: The assay was performed based on the shake-flask method and the absorbance readings by ultraviolet spectroscopy at maximum absorbance wavelength. To a Falcon tube with a capacity of 15 mL, 5 mL of buffer solution at pH 7.4 and 5 mL of 1-octanol were added. Then, the tested compounds were added at defined concentrations of approximately 10–15 µM, and the mixtures were homogenized via vigorous manual shaking. Next, the Falcon tubes were stirred for 4 h at 37 °C, and the experiment was carried out in triplicate for each compound. Subsequently, each sample was placed in a separatory funnel, and the collected aqueous phase was filtered through a 0.45 µm PVDF filter and transferred to a quartz cuvette (10 mm optical path) for UV/Vis reading. The distribution coefficient of each compound at pH 7.4 was determined by linear regression using the straight-line equation [33].

Series [5] can be described thus: Aqueous solubility (thermodynamic, UV spectroscopy). The class given is physicochemical. The following applies: aqueous buffer, thermodynamic from solid, phosphate buffer pH 7.4, 37 °C. As to the method:
The test was performed based on the absorbance obtained by ultraviolet spectroscopy. The scanning wavelength was determined according to the highest absorbance observed for each compound. Saturated aqueous solution of the analyzed compounds were stirred for 4 h at 37 °C, and then filtered through a 0.45 µm PVDF filter and transferred to a quartz cuvette (10 mm optical path) for reading. Solubility was determined by linear regression based on the equation of the line.

A further series has as its target T2, human CB1 (Homo sapiens, UniProt P21554).
T2 construct: host or cells: CHO cells
The experiment in a line: Agonist activity, cAMP in CB1-transfected CHO cells. The following applies: CB1-expressing CHO cells. It counts as cell-based. As to the method:
(§2) Negative and blank controls were performed in triplicate with and without the addition of forskolin, respectively.

Series [6] has as its system formalin-induced licking behavior in mice. Briefly: Formalin-induced licking behavior. The class given is in vivo, Swiss Webster mice. As to the method:
This assay was performed as described by Hunskaar et al. and adapted by Gomes et al.. This model was characterized by a response that occurred in two phases. The first phase (acute neurogenic pain) occurred during the first 5 min after the intraplantar injection of formalin, and the second phase (inflammatory pain) occurred 15 to 30 min post-injection. Mice were pretreated with oral doses of LASSBio-2265 (11, at 1, 3 or 10 mg/kg, p.o.), morphine (2.5 mg/kg, i.p.), acetylsalicylic acid (ASA, 200 mg/kg, p.o.), or the vehicle (same amount of DMSO used to solubilize the substances + NaCl 0.9%) 60 min before the administration of formalin. […] Then, mice (n = 7 per group) received 20 μL of formalin (2.5% v/v) in the dorsal surface of the left hind paw. The time that the mice spent licking the injected paw was immediately recorded. […] The final volume administered to mice was 0.1 mL.

In series [7] the target is T1, human CB2. Briefly: Inverse agonist activity, cAMP Hunter CHO-K1 CNR2 Gi cells (HitHunter cAMP XS+). It counts as cell-based. On the set-up: host or cells: cAMP Hunter CHO-K1 CNR2 Gi. The settings on record: inverse agonism, cAMP increase, 8 μM (EC20) forskolin. On the procedure: The cellular functional assay used to evaluate the inverse agonist activity of LASSBio-2265 (11) toward the cannabinoid CB2 receptor was carried out at Eurofins DiscoveryX Corporation USA (https://www.discoverx.com/home) under the study number FR095-0025341-Q (accessed on 02 June 2021) using the GPCR Biosensor Assay. Cell line cAMP Hunter CHO-K1 CNR2 Gi was seeded at a total volume of 20 µL into white-walled, 384-well microplates and incubated at 37 °C prior to testing in the presence of 8 μM (EC20) forskolin. The media was aspirated from the cells and replaced with 15 µL a 2:1 solution of Hanks’ balanced salt solution (HBSS)/10 mM Hepes:cAMP XS+ Ab reagent. Intermediate dilution of the sample stocks was performed to generate 4× samples in assay buffer containing 32 μM forskolin. Then, 5 µL of each 4× sample was added to the cells and incubated at 37 °C for 60 min. […] After signal generation, the microplates were read with a PerkinElmer Envision instrument for chemiluminescent signal detection. Compound activity was analyzed using the CBIS data analysis suite (ChemInnovation, San Diego, CA, USA). Percent activity was calculated using the following formula: […]
as §1

Another series relates to plasma carboxylesterases. Briefly: Plasma stability against enzymatic hydrolysis. The following applies: rat plasma, determined after 240 min. It counts as in vitro ADME, Wistar rats. As to the method: For the evaluation of plasma stability against plasma carboxylesterases, a pool of plasma male Wistar rats weighing 300–360 g kept in the vivarium of the Laboratory of Biochemical and Molecular Pharmacology-UFRJ was used. Blood was collected with heparin and kept on ice. Then, the samples were centrifuged at 2000 rpm for 15 min at 20 °C, with subsequent removal of the plasma. The plasma was then diluted 80% (v/v) with phosphate buffer (PBS; pH = 7.4) at 37 °C. The experiments performed in this work were approved by the Ethics Committee on the Use of Animals in Scientific Experiments of the Health Sciences Center of the Federal University of Rio de Janeiro (Number 028/15). The biological matrix was incubated at 37 °C under agitation for 30, 60, 120, and 240 min. The degree of degradation was evaluated by HPLC-PDA with methyl 1,1′bisphenyl-4-carboxylate as an internal standard (PI), using an isocratic mobile phase of 70%:30% acetonitrile:water (0–15 min), an injection volume of 20 μL, a flow rate of 1 mL/min, and detection at 254 nm.

Series [8] has as its target T1, human CB2. Briefly: Agonist activity, cAMP in CB2-transfected CHO cells. The class given is cell-based. The following applies: CB2-expressing CHO cells, from 1 μM. Details: host or cells: CHO cells. As to the method:
as §2

Molecules are shown by their SMILES. Values after ≈ are worked out from the molar mass of the structure shown. “Also recorded” adds a separate entry of the source.

We go through four molecules from article PMC9781268, “2-Arylpropionic Acid Pyrazolamides as Cannabinoid CB2 Receptor Inverse Agonists Endowed with Anti-Inflammatory Properties” (Pharmaceuticals, 2022).

Broadly, the Ki is a measure of affinity in units of concentration, obtained from inhibition or displacement. Usually Papp stands for the rate of passage across a membrane or cell layer, normalised by area and donor concentration. A lower Papp goes with poor permeation. By solubility is commonly meant the concentration that dissolves in the medium under given conditions. A high value points to a readily soluble substance. The term Emax denotes the maximal effect, on the per cent scale that the assay sets. A word on the EC50: it is the concentration at which the effect is half-maximal. Higher therefore signals a less potent agent. The melting point is the temperature of the solid-liquid transition.

T1 sequence (P34972 whole entry): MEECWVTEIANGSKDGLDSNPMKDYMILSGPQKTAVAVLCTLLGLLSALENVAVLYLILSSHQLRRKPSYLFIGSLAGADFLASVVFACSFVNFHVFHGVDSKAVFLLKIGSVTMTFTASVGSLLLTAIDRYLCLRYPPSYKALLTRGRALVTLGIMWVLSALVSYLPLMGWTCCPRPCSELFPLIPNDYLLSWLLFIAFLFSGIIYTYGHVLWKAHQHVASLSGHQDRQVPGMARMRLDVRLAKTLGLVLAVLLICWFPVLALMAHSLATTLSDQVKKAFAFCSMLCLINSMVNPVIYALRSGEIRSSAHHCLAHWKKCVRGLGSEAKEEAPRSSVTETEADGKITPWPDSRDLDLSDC
T2 sequence (P21554 whole entry): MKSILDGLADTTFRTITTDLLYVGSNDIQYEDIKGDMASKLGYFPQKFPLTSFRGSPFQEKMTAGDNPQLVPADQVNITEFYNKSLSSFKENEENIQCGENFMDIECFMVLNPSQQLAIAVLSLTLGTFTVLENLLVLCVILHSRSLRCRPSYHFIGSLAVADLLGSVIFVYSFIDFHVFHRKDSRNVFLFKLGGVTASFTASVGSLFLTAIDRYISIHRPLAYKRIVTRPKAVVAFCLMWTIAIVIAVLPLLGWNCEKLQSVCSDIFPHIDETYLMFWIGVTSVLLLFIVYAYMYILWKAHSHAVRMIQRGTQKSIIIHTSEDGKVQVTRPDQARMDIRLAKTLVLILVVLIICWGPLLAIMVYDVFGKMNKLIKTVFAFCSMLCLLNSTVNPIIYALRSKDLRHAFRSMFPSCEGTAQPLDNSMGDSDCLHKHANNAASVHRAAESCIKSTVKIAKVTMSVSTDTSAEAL

As for `CCCCC/C=C\C/C=C\C/C=C\C/C=C\CCCC(=O)N(C)c1c(C)n(C)n(-c2ccccc2)c1=O` [Compound 6], the “Affinity for CB1 receptors” value in the series on CB1 receptors is given as “micromolar affinity”. On CB2 receptor, the Ki was 3 µM and the “Affinity for CB2 receptors” value is “micromolar affinity”.
In the case of `Cc1c(N(C)C(=O)C(C)c2ccc(-c3ccccc3)c(F)c2)c(=O)n(-c2ccccc2)n1C` (stereo not drawn) [Compound 11, N-(1,5-dimethyl-3-oxo-2-phenyl-2,3-dihydro-1H-pyrazol-4-yl)-2-(2-fluoro-[1,1’-biphenyl]-4-yl)-N-methylpropanamide], the Ki at human CB2 [1] worked out at 16 µM. Besides, in series [2], the Papp at 2.75 h, 0.2 mg/mL was 92.6 nm/s; the Classification result is listed as “CNS +”; the Pe experimental is reported as 9,26 10-6 cm s-1; the “PAMPA-BBB Score” value was “CNS+ (CNS+ (high predicted BBB permeability) Pe > 4.0 × 10^−6 cm/s)”. Besides, in series [3], the Papp at 8 h, 0.5 mM came out at 102 nm/s; the Classification result is “HIGH (high intestinal permeability: >70%)”; the “Pe Exp” value is 10,18 10-6 cm/s; the Fa was 97,91%. The “PAMPA-GI Fa Exp” value in series [3] is reported as 97.91%. For the same molecule, in series [4], the logD amounted to 1.98. For the same molecule, the solubility at 4 h in series [5] amounted to 68.5 µM (≈ 30.4 µg/mL). For the same molecule, the “Effect on cAMP concentration” value on human CB1 is reported as “no effect was observed”. In series [6] (3 mg/kg), the “Antinociceptive effect in the formalin test” value is “decreased pain behaviour”. Moreover, the “Analgesia in the second (late, inflammatory) phase of the formalin test” value in series [6] (LASSBio-2265 1, 3 and 10 mg/kg p.o., morphine 2.5 mg/kg, ASA 200 mg/kg, listed as LASSBio-2265 (11)) was “remarkable analgesic activity in the late inflammatory phase; also recorded: comparable to both morphine and ASA”. For the same molecule, the “Analgesia in the first phase of the formalin test” value in series [6] (morphine 2.5 mg/kg i.p., ASA 200 mg/kg p.o., LASSBio-2265 1, 3 and 10 mg/kg p.o., compared to vehicle) is “only morphine (2.5 mg/kg) promoted significant analgesia”. Moreover, the maximal effect (Emax) at human CB2 [7] (CHO-K1, read-out: Emax (efficacy, % of the maximum effect)) was determined as 63%. On human CB2 [7], a half-maximal response (EC50) required 0.369 ± 0.03 µM. Moreover, in the series on plasma carboxylesterases, the “Plasma Metabolization Rate” value is 13.04%. Moreover, the “Effect on cAMP concentration” value on human CB2 [8] is given as “important effect starting from 1 μM”.
Regarding `CCCCC/C=C\C/C=C\C/C=C\C/C=C\CCCC(=O)Nc1c(C)n(C)n(-c2ccccc2)c1=O` [Compound 5], in the series on CB1 receptors, the “Affinity for CB1 receptors” value was “micromolar affinity”. In addition, on CB2 receptor, the Ki is 5.4 µM and the “Affinity for CB2 receptors” value is listed as “micromolar affinity”.
As to `Cc1c(NC(=O)C(C)c2ccc(-c3ccccc3)c(F)c2)c(=O)n(-c2ccccc2)n1C` (stereo not drawn) [Compound 8, N-(1,5-dimethyl-3-oxo-2-phenyl-2,3-dihydro-1H-pyrazol-4-yl)-2-(2-fluoro-[1,1^′-biphenyl]-4-ylil) propanamide], the melting point stood at 214.8 °C. In series [2], the apparent permeability (Papp) at 2.75 h, 0.2 mg/mL was 172 nm/s; the Classification entry is reported as “CNS +”; the Pe experimental is given as 17,25 10-6 cm s-1; the “PAMPA-BBB Score” value is “CNS+ (CNS+ (high predicted BBB permeability) Pe > 4.0 × 10^−6 cm/s)”. Besides, in series [3], the apparent permeability coefficient (Papp) at 8 h, 0.5 mM was 96.9 nm/s; the Classification entry is given as “HIGH (high intestinal permeability: >70%)”; the “Pe Exp” value is 9,69 10-6 cm/s; the Fa is recorded as 97,49%. For the same molecule, the “PAMPA-GI Fa Exp” value in series [3] is given as 97.49%. In addition, the logD in series [4] worked out at 1.94. Also, the solubility at 4 h in series [5] was 59.1 µM (≈ 25.4 µg/mL). Moreover, the “Plasma Metabolization Rate” value in the series on plasma carboxylesterases came to 18.66%.
